± gives the standard deviation of the averaged measurements.
Columns and labels:
SNX-5422 = compound: CC1(C)CC(=O)c2c(C(F)(F)F)nn(-c3ccc(C(N)=O)c(N[C@H]4CC[C@H](OC(=O)CN)CC4)c3)c2C1 [SNX-5422]; assay: surviving fraction relative to DMSO-only wells; higher = less growth inhibition; details: exposure time: 5 days
Summary of the method: (§1)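 Viability values are CellTiter-Glo luminescence readings, given as surviving fraction against the median of DMSO-only wells. The readings were taken after 10 minutes at room temperature, following five days of continuous exposure to inhibitors at 0.5, 1, 5, 10, 50, 100, 500 and 1000 nM that began 24 hours after log-phase tumour cell lines were seeded at 250–500 cells per well in 384-well plates. Every line was screened three times and kept only if replicate Pearson r >0.7 and median Z' >0.3.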

SAPACITABINE = compound: CCCCCCCCCCCCCCCC(=O)Nc1ccn([C@@H]2O[C@H](CO)[C@@H](O)[C@@H]2C#N)c(=O)n1 [SAPACITABINE]; assay: as above; details: exposure time: 5 days
Summary of the method: as §1

Test System | surviving fraction (SNX-5422; 0.5 nM) | surviving fraction (SNX-5422; 1 nM) | surviving fraction (SNX-5422; 5 nM) | surviving fraction (SNX-5422; 10 nM) | surviving fraction (SNX-5422; 50 nM) | surviving fraction (SNX-5422; 100 nM) | surviving fraction (SNX-5422; 500 nM) | surviving fraction (SNX-5422; 1000 nM) | surviving fraction (SAPACITABINE; 0.5 nM) | surviving fraction (SAPACITABINE; 1 nM) | surviving fraction (SAPACITABINE; 5 nM) | surviving fraction (SAPACITABINE; 10 nM) | surviving fraction (SAPACITABINE; 50 nM) | surviving fraction (SAPACITABINE; 100 nM) | surviving fraction (SAPACITABINE; 500 nM) | surviving fraction (SAPACITABINE; 1000 nM)
22RV1 PROSTATE | 1.06 ± 0.047 | 1.11 ± 0.056 | 1.06 ± 0.037 | 0.941 ± 0.056 | 0.169 ± 0.018 | 0.13 ± 0.022 | 0.0763 ± 0.014 | 0.0823 ± 0.0091 | 0.89 ± 0.094 | 1.06 ± 0.16 | 0.894 ± 0.042 | 0.8687 ± 0.0045 | 0.746 ± 0.12 | 0.692 ± 0.099 | 0.333 ± 0.029 | 0.199 ± 0.034
93VU HEADNECK | 1.14 ± 0.02 | 1.15 ± 0.029 | 1.31 ± 0.069 | 1.24 ± 0.085 | 0.648 ± 0.074 | 0.199 ± 0.041 | 0.0953 ± 0.0047 | 0.0957 ± 0.012 | 0.75 ± 0.041 | 0.764 ± 0.051 | 0.862 ± 0.059 | 0.849 ± 0.16 | 1.02 ± 0.026 | 0.927 ± 0.049 | 0.74 ± 0.086 | 0.611 ± 0.017
A549 LUNG | 1 ± 0.046 | 1.01 ± 0.053 | 1.01 ± 0.043 | 0.99 ± 0.045 | 0.895 ± 0.057 | 0.349 ± 0.046 | 0.0613 ± 0.0031 | 0.058 ± 0.0095 | 0.906 ± 0.026 | 0.906 ± 0.023 | 0.908 ± 0.021 | 0.906 ± 0.013 | 0.87 ± 0.022 | 0.666 ± 0.035 | 0.416 ± 0.001 | 0.308 ± 0.034
ASKA SYNOVIAL | 0.957 ± 0.041 | 0.967 ± 0.015 | 0.963 ± 0.035 | 0.883 ± 0.062 | 0.461 ± 0.05 | 0.233 ± 0.01 | 0.231 ± 0.0067 | 0.293 ± 0.0035 | 0.917 ± 0.028 | 0.783 ± 0.0061 | 0.865 ± 0.024 | 0.327 ± 0.053 | 0.911 ± 0.043 | 0.688 ± 0.044 | 0.489 ± 0.01 | 0.203 ± 0.014
BT549 BREAST | 1.1 ± 0.22 | 0.861 ± 0.11 | 1.19 ± 0.077 | 1.05 ± 0.11 | 0.216 ± 0.02 | 0.187 ± 0.059 | 0.0503 ± 0.011 | 0.0473 ± 0.0074 | 0.831 ± 0.065 | 0.869 ± 0.068 | 0.809 ± 0.027 | 0.695 ± 0.026 | 0.508 ± 0.022 | 0.367 ± 0.029 | 0.16 ± 0.044 | 0.125 ± 0.034
C33A CERVIX | 1.03 ± 0.086 | 0.977 ± 0.073 | 1.03 ± 0.048 | 1.01 ± 0.069 | 0.316 ± 0.025 | 0.208 ± 0.086 | 0.056 ± 0.022 | 0.0593 ± 0.025 | 1.09 ± 0.078 | 0.987 ± 0.071 | 1.12 ± 0.026 | 0.981 ± 0.059 | 0.711 ± 0.08 | 0.457 ± 0.029 | 0.214 ± 0.024 | 0.142 ± 0.021
CAL51 BREAST | 0.902 ± 0.075 | 0.973 ± 0.016 | 1.02 ± 0.036 | 1 ± 0.034 | 0.261 ± 0.036 | 0.077 ± 0.0036 | 0.0237 ± 0.00058 | 0.0263 ± 0.0015 | 0.878 ± 0.1 | 0.838 ± 0.14 | 0.977 ± 0.074 | 0.929 ± 0.1 | 0.789 ± 0.0083 | 0.533 ± 0.13 | 0.112 ± 0.022 | 0.0657 ± 0.014
CAL72 BONE | 1.033 ± 0.0045 | 1.06 ± 0.022 | 1.077 ± 0.01 | 1.08 ± 0.046 | 0.208 ± 0.027 | 0.294 ± 0.038 | 0.0867 ± 0.014 | 0.0977 ± 0.0057 | 0.986 ± 0.07 | 0.951 ± 0.041 | 0.91 ± 0.058 | 0.798 ± 0.13 | 0.559 ± 0.049 | 0.369 ± 0.12 | 0.181 ± 0.039 | 0.128 ± 0.027
CAL120 BREAST | 0.993 ± 0.019 | 0.946 ± 0.034 | 0.962 ± 0.057 | 0.875 ± 0.057 | 0.149 ± 0.013 | 0.132 ± 0.0094 | 0.083 ± 0.0092 | 0.0862 ± 0.0052 | 0.917 ± 0.028 | 0.901 ± 0.047 | 0.893 ± 0.081 | 0.876 ± 0.053 | 0.749 ± 0.06 | 0.631 ± 0.038 | 0.428 ± 0.01 | 0.3798 ± 0.0035
CASKI CERVIX | 0.913 ± 0.016 | 0.937 ± 0.021 | 0.932 ± 0.049 | 0.829 ± 0.074 | 0.119 ± 0.02 | 0.0603 ± 0.0035 | 0.031 ± 0.0036 | 0.033 | 0.804 ± 0.055 | 0.843 ± 0.048 | 0.795 ± 0.026 | 0.746 ± 0.04 | 1.02 ± 0.053 | 0.936 ± 0.036 | 0.45 ± 0.019 | 0.268 ± 0.0036
CME SYNOVIAL | 1.05 ± 0.06 | 1.21 ± 0.062 | 1.23 ± 0.074 | 1.35 ± 0.077 | 1.01 ± 0.18 | 0.276 ± 0.0067 | 0.287 ± 0.011 | 0.365 ± 0.034 | 0.788 ± 0.087 | 0.415 ± 0.05 | 0.703 ± 0.091 | 0.027 ± 0.011 | 0.922 ± 0.077 | 0.379 ± 0.075 | 0.248 ± 0.016 | 0.034 ± 0.0076
COLO320DM LARGE INTESTINE | 1.11 ± 0.05 | 1.25 ± 0.046 | 1.24 ± 0.27 | 1.13 ± 0.12 | 0.581 ± 0.029 | 0.309 ± 0.035 | 0.113 ± 0.0058 | 0.103 ± 0.009 | 1.01 ± 0.054 | 0.88 ± 0.044 | 1.08 ± 0.043 | 0.386 ± 0.015 | 0.887 ± 0.057 | 0.689 ± 0.0072 | 0.597 ± 0.024 | 0.185 ± 0.0083
G292 BONE | 1.01 ± 0.014 | 0.952 ± 0.055 | 1.02 ± 0.033 | 0.994 ± 0.034 | 0.366 ± 0.017 | 0.287 ± 0.028 | 0.081 ± 0.0089 | 0.0853 ± 0.012 | 0.947 ± 0.056 | 0.955 ± 0.026 | 0.927 ± 0.059 | 0.899 ± 0.061 | 0.618 ± 0.028 | 0.482 ± 0.012 | 0.326 ± 0.011 | 0.299 ± 0.0036
H23 LUNG | 1.01 ± 0.051 | 1.04 ± 0.023 | 1.06 ± 0.057 | 1.04 ± 0.052 | 0.43 ± 0.0053 | 0.268 ± 0.013 | 0.037 ± 0.0027 | 0.0373 ± 0.0035 | 0.891 ± 0.02 | 0.894 ± 0.025 | 0.916 ± 0.028 | 0.924 ± 0.015 | 0.868 ± 0.051 | 0.668 ± 0.024 | 0.301 ± 0.013 | 0.264 ± 0.014
HCC38 BREAST | 1.19 ± 0.18 | 1.09 ± 0.094 | 1.06 ± 0.19 | 1.01 ± 0.15 | 0.219 ± 0.053 | 0.26 ± 0.027 | 0.0927 ± 0.0074 | 0.0897 ± 0.017 | 0.958 ± 0.075 | 0.931 ± 0.092 | 1.02 ± 0.21 | 0.801 ± 0.02 | 0.594 ± 0.17 | 0.525 ± 0.04 | 0.414 ± 0.086 | 0.274 ± 0.088
HCC70 BREAST | 1.07 ± 0.05 | 1.142 ± 0.0055 | 1.19 ± 0.043 | 1.17 ± 0.048 | 0.668 ± 0.11 | 0.133 ± 0.023 | 0.127 ± 0.021 | 0.113 ± 0.016 | 0.968 ± 0.09 | 0.935 ± 0.058 | 1.03 ± 0.036 | 0.97 ± 0.023 | 0.746 ± 0.065 | 0.635 ± 0.0092 | 0.4057 ± 0.0035 | 0.332 ± 0.028
HCC202 BREAST | 1.37 ± 0.51 | 0.842 ± 0.83 | 0.874 ± 0.71 | 1.11 ± 0.68 | 0.514 ± 0.12 | 0.534 ± 0.12 | 0.218 ± 0.053 | 0.186 ± 0.043 | 0.86 ± 0.17 | 0.93 ± 0.091 | 1.04 ± 0.38 | 0.761 ± 0.21 | 1.08 ± 0.37 | 0.904 ± 0.0085 | 0.911 ± 0.15 | 0.851 ± 0.048
HCC1395 BREAST | 0.865 ± 0.17 | 0.862 ± 0.071 | 0.943 ± 0.15 | 1.16 ± 0.23 | 0.975 ± 0.15 | 1.15 ± 0.066 | 0.818 ± 0.1 | 0.893 ± 0.05 | 0.861 ± 0.028 | 0.828 ± 0.045 | 0.949 ± 0.035 | 0.877 ± 0.04 | 0.935 ± 0.14 | 0.889 ± 0.028 | 0.808 ± 0.16 | 0.715 ± 0.15
HCC1806 BREAST | 1.15 ± 0.15 | 1.04 ± 0.064 | 1.12 ± 0.012 | 1.07 ± 0.07 | 0.05 ± 0.0085 | 0.03 ± 0.001 | 0.029 | 0.035 ± 0.001 | 0.698 ± 0.06 | 0.673 ± 0.062 | 0.652 ± 0.048 | 0.462 ± 0.067 | 0.259 ± 0.028 | 0.167 ± 0.0089 | 0.0637 ± 0.0081 | 0.061 ± 0.007
HCC1954 BREAST | 0.8303 ± 0.0039 | 0.93 ± 0.028 | 0.873 ± 0.042 | 0.762 ± 0.06 | 0.151 ± 0.0095 | 0.109 ± 0.0067 | 0.0587 ± 0.0011 | 0.062 ± 0.0021 | 0.436 ± 0.047 | 0.437 ± 0.016 | 0.445 ± 0.058 | 0.559 ± 0.1 | 0.464 ± 0.037 | 0.371 ± 0.014 | 0.425 ± 0.0067 | 0.343 ± 0.035

— the supplement of paper PMC6045584
